Data set [1] is described as follows: Compound was evaluated for its anticoagulant and antithrombotic activity by measuring the clotting parameter in human plasma. In kind it is functional.
Data set [2] can be described thus: Partition coefficient (logP). Particulars: octanol/water. In kind it is physicochemical.
The species entered for data set [3] is Rattus norvegicus. Description: Compound was evaluated for its anticoagulant and antithrombotic activity by measuring the final plasma concentration in rat plasma. In kind it is functional, organism-based.
Data set [4] is filed under the species Homo sapiens. Description: Compound was evaluated for its anticoagulant and antithrombotic activity by measuring the %protein binding in human plasma. It counts as functional, cell-free.
In data set [5] the target is Prothrombin (Homo sapiens, UniProt P00734). Description: Compound was evaluated to inhibit the thrombin enzyme.
In data set [6] the target is Serine protease 1 (Homo sapiens, UniProt P07477). Description: Compound was evaluated to inhibit the trypsin enzyme.
Chain of Serine protease 1 (P07477 whole entry): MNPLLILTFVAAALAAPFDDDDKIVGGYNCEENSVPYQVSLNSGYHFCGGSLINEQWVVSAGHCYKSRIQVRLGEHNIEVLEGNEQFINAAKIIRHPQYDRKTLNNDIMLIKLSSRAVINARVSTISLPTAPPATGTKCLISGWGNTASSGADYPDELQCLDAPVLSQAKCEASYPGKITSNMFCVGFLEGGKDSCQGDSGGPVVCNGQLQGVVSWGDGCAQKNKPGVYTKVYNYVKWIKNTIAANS
Data set [7] is described as follows: Compound was evaluated for area under curve (total concentration) in dogs at a dose of 5 mpk perorally. The settings on record: dog, in vivo, po, 5 mg/kg. It counts as ADME, organism-based, Canis lupus familiaris.
Data set [8] is filed under the species Rattus norvegicus. Description: Compound was evaluated for its anticoagulant and antithrombotic activity by measuring the clotting parameter in rat plasma. In kind it is functional.
A short description of data set [9]: Bioavailability as Cmax in dogs at 5 mg/kg oral dose. The settings on record: dog, in vivo. Further details: dose 5 mg/kg, route oral. It counts as ADME, organism-based, Canis lupus familiaris.
Data set [10] is described as follows: Compound was evaluated for Clearance in dogs at a dose of 1 mpk intravenously. In kind it is ADME, organism-based, Canis lupus familiaris. The settings on record: dog, in vivo, iv, 1 mg/kg; read-out: CI.
The nature of data set [11]: Compound was evaluated for area under curve (total concentration) in dogs at a dose of 1 mpk perorally. In kind it is ADME, organism-based, Canis lupus familiaris. The settings on record: dog, in vivo, po, 1 mg/kg.
The species named for data set [12] is Canis familiaris. Description: (§1) Compound was evaluated for half-life period in dogs at a dose of 5 mpk perorally. In kind it is ADME, organism-based, Canis lupus familiaris. Particulars: dog, in vivo, po, 5 mg/kg.
Data set [13] can be described thus: Bioavailability as Vdss in dogs at 1 mg/kg intravenous dose. It counts as ADME, organism-based, Canis lupus familiaris. The settings on record: dog, in vivo, read-out: Vdss.
For data set [14], the species on record is Rattus norvegicus. Description: Compound was evaluated for its anticoagulant and antithrombotic activity by measuring the %protein binding in rat plasma. In kind it is functional, organism-based.
Data set [15] can be described thus: as §1. It counts as ADME, organism-based, Canis lupus familiaris. The settings on record: dog, in vivo, po, 5 mg/kg.

Consider `Cc1nc(N)ccc1CNC(=O)Cn1c(C2CC2)ccc(NS(=O)(=O)Cc2ccc(Cl)cc2)c1=O`, for which, in [1], the “2x APTT” value was 1.43 µM. In data set [2], this compound showed a logP of 1.98. The Plasma concentration in data set [3] turned out to be 0.347 µM. The same compound returned a PPB in [4] of 94%. In addition, the Ki in data set [5] was 4 nM; in data set [6] it was 1900 nM.
For `Cc1nc(N)ccc1CNC(=O)Cn1c(C(F)(F)F)ccc(NS(=O)(=O)Cc2ccccc2)c1=O`, the Ki in [5] came to 12 nM; in data set [6], 2500 nM.
Consider `Cc1nc(N)ccc1CNC(=O)Cn1c(C)ccc(NS(=O)(=O)Cc2ccccc2)c1=O` [L-374087], for which the AUC in [7] is 18.8 µM·h; in data set [11], 9.92 µM·h. The “2x APTT” value was found to be 0.22 µM in data set [1] and 0.25 µM in data set [8]. Besides, the Cmax in data set [9] was found to be 5.31 µM. This compound also registered a logP in data set [2] of 0.69. In addition, the clearance in data set [10] was 3.8 mL/min/kg. This compound registered a Plasma concentration in [3] of 0.586 µM. Also, the PPB came out at 78% in data set [4] and 47% in data set [14]. This compound showed a T1/2 in data set [12] of 2.52 h. The Vd in data set [13] came to 0.46 L/kg.
Take `CCCc1ccc(NS(=O)(=O)Cc2ccccc2)c(=O)n1CC(=O)NCc1ccc(N)nc1C`: the AUC in data set [7] came to 40.6 µM·h; in data set [11] it was 5.93 µM·h. Moreover, the “2x APTT” value in data set [1] was found to be 0.32 µM; in [8], 0.4 µM. In data set [9], this compound showed a Cmax of 9.46 µM. In addition, the logP in [2] came out at 1.52. In data set [10], the clearance came to 5.82 mL/min/kg. Besides, the Plasma concentration in data set [3] came to 0.389 µM. The PPB in [4] came to 88%; in [14], 75%. Further, the figures for the Ki in [5] and in data set [6] were 0.85 nM and 1400 nM, respectively. In [15], this compound showed a half-life of 3.15 h. In addition, in data set [13], the Vd was found to be 0.54 L/kg.
Consider `Cc1nc(N)ccc1CNC(=O)Cn1c(C(F)(F)F)ccc(NS(=O)(=O)Cc2ccc(Cl)cc2)c1=O`, for which the Ki came out at 2.6 nM in [5] and 3400 nM in data set [6].
As to `Cc1nc(N)ccc1CNC(=O)Cn1c(C)ccc(NS(=O)(=O)Cc2ccc(Cl)cc2)c1=O`, the values for the Ki in data set [5] and in data set [6] were 0.12 nM and 2600 nM, respectively.
As to `Cc1nc(N)ccc1CNC(=O)Cn1c(C2CC2)ccc(NS(=O)(=O)Cc2ccccc2)c1=O`, the inhibitory constant (Ki) in data set [5] came to 16 nM; in [6], 1700 nM.

Source of the values: ChEMBL document CHEMBL1130870, “C6 modification of the pyridinone core of thrombin inhibitor L-374,087 as a means of enhancing its oral absorption” (Bioorg Med Chem Lett, 1998).
